Test results taken from ChEMBL document CHEMBL6103624, “Design, Synthesis, and Biological Evaluation of Marchantin C-NO Donor Hybrids for Overcoming Pgp-Mediated Drug Resistance by Targeting Lysosome” (J Med Chem, 2025).

Key:
MCF7 = assay: Antiproliferative activity against human MCF7 cells assessed as inhibition of cell growth incubated for 48 hrs by MTT assay; type: functional, cell-based; details: MCF7, 48 h
NCI/ADR-RES = assay: Antiproliferative activity against human MCF7ADR cells assessed as inhibition of cell growth incubated for 48 hrs by MTT assay; type: functional, cell-based
[1] = Selectivity index, ratio of IC50 for antiproliferative activity against human MCF7 cells assessed as inhibition of cell growth to IC50 for antiproliferative activity against human MCF7ADR cells assessed as inhibition of cell growth; type: functional
A549 = assay: Antiproliferative activity against human A549 cells assessed as inhibition of cell growth incubated for 48 hrs by MTT assay; type: functional, cell-based; details: A549, 48 h
A549/TR = assay: Antiproliferative activity against human A549/Taxol cells assessed as inhibition of cell growth incubated for 48 hrs by MTT assay; type: functional, cell-based
[2] = Selectivity index, ratio of IC50 for antiproliferative activity against human A549 cells assessed as inhibition of cell growth to IC50 for antiproliferative activity against human A549/Taxol cells assessed as inhibition of cell growth; type: functional
HepG2 = assay: Antiproliferative activity against human HepG2 cells assessed as inhibition of cell growth incubated for 48 hrs by MTT assay; type: functional, cell-based; details: HepG2, 48 h
PC-3 = assay: Antiproliferative activity against human PC-3 cells assessed as inhibition of cell growth incubated for 48 hrs by MTT assay; type: functional, cell-based; details: PC-3, 48 h
[3] = Cytotoxicity against human MCF-10A cells assessed as inhibition of cell growth incubated for 48 hrs by MTT assay; type: toxicity, cell-based
[4] = Cytotoxicity against human BEAS-2B cells assessed as inhibition of cell growth incubated for 48 hrs by MTT assay; type: toxicity, cell-based

Compound	IC50 (MCF7)	IC50 (A549)	IC50 (A549/TR)	IC50 (HepG2)	IC50 (PC-3)	IC50 (NCI/ADR-RES)	Ratio IC50 [1]	Ratio IC50 [2]	IC50 at 48 h [3]	IC50 at 48 h [4]
CC(=O)CCCCn1c(=O)c2c(ncn2C)n(C)c1=O [PENTOXIFYLLINE]		11 µM	> 20 µM					<0.5		
CO/N=[N+](\[O-])N1CCN(Cc2ccc3c(c2O)Oc2cccc(c2)CCc2ccc(O)c(c2)Oc2ccc(cc2)CC3)CC1		> 40 µM		> 20 µM	> 20 µM					
O=C(CCCCCOc1no[n+]([O-])c1S(=O)(=O)c1ccccc1)Oc1ccc2cc1Oc1ccc(cc1)CCc1cccc(OC(=O)CCCCCOc3no[n+]([O-])c3S(=O)(=O)c3ccccc3)c1Oc1cccc(c1)CC2	> 20 µM	> 40 µM	> 20 µM	> 20 µM	> 20 µM	> 3 µM	<7			
O=S(=O)(c1ccccc1)c1c(OCCCCOc2ccc3cc2Oc2ccc(cc2)CCc2cccc(OCCCCOc4no[n+]([O-])c4S(=O)(=O)c4ccccc4)c2Oc2cccc(c2)CC3)no[n+]1[O-]	> 20 µM	> 40 µM	> 20 µM	> 20 µM	> 20 µM	> 3 µM	<7			
O=S(=O)(c1ccccc1)c1c(Oc2ccc(COc3cccc4c3Oc3cccc(c3)CCc3ccc(O)c(c3)Oc3ccc(cc3)CC4)cc2)no[n+]1[O-]	> 20 µM	> 40 µM		> 20 µM	> 20 µM	> 3 µM	<7			
O=C(/C=C\COc1no[n+]([O-])c1S(=O)(=O)c1ccccc1)Oc1ccc2cc1Oc1ccc(cc1)CCc1cccc(OC(=O)/C=C\COc3no[n+]([O-])c3S(=O)(=O)c3ccccc3)c1Oc1cccc(c1)CC2		> 40 µM		> 20 µM	> 20 µM					
COc1cccc2c1C(=O)c1c(O)c3c(c(O)c1C2=O)C[C@@](O)(C(=O)CO)C[C@@H]3O[C@H]1C[C@H](N)[C@H](O)[C@H](C)O1 [DOXORUBICIN]	< 0.025 µM					32 µM	<0.001		< 2.5 µM	< 2.5 µM
O=C(/N=c1/c[n+](-c2ccccc2)[n-]o1)Oc1ccc2cc1Oc1ccc(cc1)CCc1cccc(OC(=O)/N=c3/c[n+](-c4ccccc4)[n-]o3)c1Oc1cccc(c1)CC2		> 40 µM		> 20 µM	> 20 µM					
O=C(CCCOc1no[n+]([O-])c1S(=O)(=O)c1ccccc1)Oc1cccc2c1Oc1cccc(c1)CCc1ccc(O)c(c1)Oc1ccc(cc1)CC2		> 40 µM		> 20 µM	> 20 µM					
O=S(=O)(c1ccccc1)c1c(OCCCCCCOc2ccc3cc2Oc2ccc(cc2)CCc2cccc(OCCCCCCOc4no[n+]([O-])c4S(=O)(=O)c4ccccc4)c2Oc2cccc(c2)CC3)no[n+]1[O-]	27.8 µM	> 40 µM	> 20 µM	> 20 µM	> 20 µM	> 3 µM	<9			
O=[N+]([O-])OCC(COc1ccc2cc1Oc1ccc(cc1)CCc1cccc(OCC(CO[N+](=O)[O-])O[N+](=O)[O-])c1Oc1cccc(c1)CC2)O[N+](=O)[O-] (stereo unspecified)	> 20 µM	> 40 µM		> 20 µM	> 20 µM	> 20 µM				
O=S(=O)(c1ccccc1)c1c(OC/C=C\COc2ccc3cc2Oc2ccc(cc2)CCc2cccc(OC/C=C\COc4no[n+]([O-])c4S(=O)(=O)c4ccccc4)c2Oc2cccc(c2)CC3)no[n+]1[O-]	> 20 µM					> 3 µM	<7			

Second part, led by results:

IC50 (MCF7)	IC50 (A549)	IC50 (A549/TR)	IC50 (HepG2)	IC50 (PC-3)	Compound	IC50 (NCI/ADR-RES)	Ratio IC50 [1]	Ratio IC50 [2]	IC50 at 48 h [3]	IC50 at 48 h [4]
> 20 µM	> 40 µM	> 20 µM			O=S(=O)(c1ccccc1)c1c(OC/C=C\COc2cccc3c2Oc2cccc(c2)CCc2ccc(O)c(c2)Oc2ccc(cc2)CC3)no[n+]1[O-]	> 3 µM	<7			
> 20 µM	> 40 µM	5.92 µM	> 20 µM	> 20 µM	O=S(=O)(c1ccccc1)c1c(OCCCCOc2cccc3c2Oc2cccc(c2)CCc2ccc(O)c(c2)Oc2ccc(cc2)CC3)no[n+]1[O-]	0.098 µM	>204	>7	8.32 µM	> 20 µM
10.9 µM	15.2 µM	5.36 µM		2.69 µM	O=S(=O)(c1ccccc1)c1c(OCCOc2ccc3cc2Oc2ccc(cc2)CCc2cccc(O)c2Oc2cccc(c2)CC3)no[n+]1[O-]	0.2 µM	55	3		
21 µM	38.4 µM	10.2 µM	> 20 µM	> 20 µM	O=S(=O)(c1ccccc1)c1c(OCCCOc2ccc3cc2Oc2ccc(cc2)CCc2cccc(OCCCOc4no[n+]([O-])c4S(=O)(=O)c4ccccc4)c2Oc2cccc(c2)CC3)no[n+]1[O-]	1 µM	21	4		
13.7 µM	> 40 µM	> 20 µM	6.46 µM	> 20 µM	O=C(/C=C\COc1no[n+]([O-])c1S(=O)(=O)c1ccccc1)Oc1cccc2c1Oc1cccc(c1)CCc1ccc(O)c(c1)Oc1ccc(cc1)CC2	> 3 µM	<5			
	> 40 µM		> 20 µM	> 20 µM	O=C(CCCCCOc1no[n+]([O-])c1S(=O)(=O)c1ccccc1)Oc1cccc2c1Oc1cccc(c1)CCc1ccc(O)c(c1)Oc1ccc(cc1)CC2					
> 20 µM	> 40 µM	6.65 µM	> 20 µM	> 20 µM	O=S(=O)(c1ccccc1)c1c(OCCCCCCOc2cccc3c2Oc2cccc(c2)CCc2ccc(O)c(c2)Oc2ccc(cc2)CC3)no[n+]1[O-]	0.37 µM	>54	>6	> 20 µM	> 20 µM
24.9 µM	41.2 µM	11.5 µM	> 20 µM	> 20 µM	O=S(=O)(c1ccccc1)c1c(OCCOc2ccc3cc2Oc2ccc(cc2)CCc2cccc(OCCOc4no[n+]([O-])c4S(=O)(=O)c4ccccc4)c2Oc2cccc(c2)CC3)no[n+]1[O-]	3.2 µM	8	4		
	> 40 µM		> 20 µM	> 20 µM	CCO/N=[N+](\[O-])N1CCN(Cc2ccc3c(c2O)Oc2cccc(c2)CCc2ccc(O)c(c2)Oc2ccc(cc2)CC3)CC1					
9.1 µM	19.1 µM	3.39 µM	1.69 µM	2.92 µM	O=S(=O)(c1ccccc1)c1c(OCCOc2cccc3c2Oc2cccc(c2)CCc2ccc(O)c(c2)Oc2ccc(cc2)CC3)no[n+]1[O-]	0.9 µM	10	6		13.7 µM
8.5 µM	33.6 µM	4.79 µM		1.2 µM	O=S(=O)(c1ccccc1)c1c(OCCCOc2ccc3cc2Oc2ccc(cc2)CCc2cccc(O)c2Oc2cccc(c2)CC3)no[n+]1[O-]	0.24 µM	35	7		< 2.5 µM
15.2 µM	39.5 µM	15.1 µM	> 20 µM	> 20 µM	O=C(CCCOc1no[n+]([O-])c1S(=O)(=O)c1ccccc1)Oc1ccc2cc1Oc1ccc(cc1)CCc1cccc(OC(=O)CCCOc3no[n+]([O-])c3S(=O)(=O)c3ccccc3)c1Oc1cccc(c1)CC2	0.68 µM	22	3		
